Type in all cases: in vitro ADME
One series has as its target T1, CYP1A2 (Homo sapiens, UniProt P05177).
T1 construct: from tissue; host or cells: liver microsomes (HLM)
T1 sequence (P05177 1-516): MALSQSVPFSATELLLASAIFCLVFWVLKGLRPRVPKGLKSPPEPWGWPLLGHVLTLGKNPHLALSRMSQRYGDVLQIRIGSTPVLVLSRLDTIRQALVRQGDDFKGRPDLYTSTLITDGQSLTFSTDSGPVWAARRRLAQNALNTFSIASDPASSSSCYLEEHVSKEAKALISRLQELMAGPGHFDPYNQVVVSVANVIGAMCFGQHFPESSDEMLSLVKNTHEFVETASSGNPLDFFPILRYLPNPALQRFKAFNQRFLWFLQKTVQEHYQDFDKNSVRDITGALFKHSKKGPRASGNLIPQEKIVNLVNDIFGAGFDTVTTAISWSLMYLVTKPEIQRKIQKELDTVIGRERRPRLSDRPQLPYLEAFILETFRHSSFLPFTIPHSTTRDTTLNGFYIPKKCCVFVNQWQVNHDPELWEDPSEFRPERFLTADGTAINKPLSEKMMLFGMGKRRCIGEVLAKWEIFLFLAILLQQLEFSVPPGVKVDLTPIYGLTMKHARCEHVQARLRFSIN
Put plainly: CYP inhibition in HLM, CYP1A2. To be noted: read-out: CYP inhibition (IC50 um) 1A2. On the procedure: (§1) 0.1 M potassium phosphate buffer (K-buffer), pH 7.4 was preheated. K-buffer was prepared by mixing 9.5 mL Stock A into 40.5 mL Stock B. The total volume was brought to 500 mL with Milli-Q water. The buffer was titrated with KOH or H3PO4 to pH 7.4. Stock A (1 M monobasic potassium phosphate) was prepared by adding 136.5 g of monobasic potassium phosphate into 1 L of Milli-Q water. Stock B (1 M dibasic potassium phosphate) was prepared by adding 174.2 g of dibasic potassium phosphate in 1 L of Milli-Q water.
(§2) Serial dilution for test compound and reference inhibitors (400×) was prepared in a 96-well plate. 8 μL of 10 mM test compounds was transferred to 12 μL of ACN. Inhibitor spiking solution was prepared for CYP1A2, CYP2C9 and CYP2D6 in cocktail by adding 12 μL of 1 mM α-Naphthoflavon, 10 μL of 40 mM Sulfaphenazole, 10 μL of 10 mM Quinidine, and 8 μL of DMSO. Individual inhibitor spiking solution for CYP3A4 and CYP2C19 was prepared by adding 8 μL of DMSO stock to 12 μL of ACN. 1:3 serial dilutions were performed in DMSO:ACN mixture (v/v: 40:60).
(§3) NADPH cofactor was prepared by dissolving 66.7 mg NADPH in 10 mL 0.1 M K-buffer, pH7.4. 4×substrate (2 mL for each isoform) was prepared. HLM was added were required on ice. 0.2 mg/mL HLM solution was prepared using 10 μL of 20 mg/mL to 990 μL of 0.1 M K-buffer on ice. 400 μL of 0.2 mg/mL HLM were added to the assay wells and then 2 μL of 400×test compound set were added into the designated wells on ice. 200 μL of 0.2 mg/mL HLM was added to the assay wells and followed by 1 μL of serially diluted reference inhibtor solution into the designated wells on ice. The following solutions were added in duplicated in a 96-well plate on ice: 30 μL of 2×test compound and reference compound in 0.2 mg/mL HLM solution and 15 μL of 4×substrate solution. The 96-well assay plate and NADPH solution were pre-incubated at 37° C. for 5 minutes. 15 μL of pre-warmed 8 mM NADPH solution was added to into the assay plates to initiate the reaction. The assay plate was incubated at 37° C. 5 mins, 10 mins, and 45 mins. […]

The target of the next series is T2, CYP2C9 (Homo sapiens, UniProt P11712).
T2 construct: from tissue; host or cells: liver microsomes (HLM)
Put plainly: CYP inhibition in HLM, CYP2C9. To be noted: read-out: CYP inhibition (IC50 um) 2C9. On the procedure: as §1, §2, §3

The target of another series is T3, CYP3A4 (Homo sapiens, UniProt P08684).
T3 construct: from tissue; host or cells: liver microsomes (HLM)
Put plainly: CYP inhibition in HLM, CYP3A4. To be noted: read-out: CYP inhibition (IC50 um) 3A. On the procedure:
as §1, §2, §3

A further series is described as follows: RBC partitioning study. To be noted: rat. How it is done:
0.05 M sodium phosphate buffer, pH 7.4 was prepared using the following steps. Stock A, stock B, and stock C solutions were prepared by adding 156 g of monobasic sodium phosphate in 1 L of Milli-Q water (1.0 M), 142 g of dibasic sodium phosphate in 1 L of Milli-Q water (1.0 M), and 58.5 g of sodium chloride in 1 L of Milli-Q water (1.0 M) respectively. 20.25 mL of Stock B and 4.75 mL of Stock A were added to 35 mL of Stock C and the total volume was brought to near 500 mL with Milli-Q water. The resulting buffer solution was titrated with NaOH or H3PO4 to pH 7.4 and the total volume was brought to 500 mL. The 0.05 M sodium phosphate buffer was preheated at 37° C.
Fresh blank plasma preparation and hematocrit determination. A tube containing whole blood was centrifuged at 4000 rpm for 10 minuts. The plasma was harvested was stored. Hematocrit (the volume of red blood cells to the total volume of whole blood) was determined using the formula:
Hematocrit=Vred cells/Vblood=(Vblood−Vplasma)/Vblood
Vblood: the volume of whole blood applied
Vplasma: the volume of plasma measured after centrifugation
Preparation of reference and test compound spiking solutions in plasma. 1.25 mM spiking solution A was prepared by adding add 10 μL of 10 mM reference into 70 μL of plasma (8-fold dilution).
Preparation of reference and test compound in whole blood and plasma. For whole blood samples, 12 μL of spiking solution B (prepared above) was added to 288 μL of whole blood (25-fold dilution). For plasma samples, 6 μL of spiking solution B was added to 144 μL of plasma (25-fold dilution). The assay procedure used is as follows. The assay plate was placed in an incubator at 37° C. for 60 minutess. 300 μL of compound spiking solution in whole blood from above was removed and centrifuged at 4000 rpm for 10 minutes. Subsequently plasma was harvested. 50 μL of plasma sample was removed and 150 μL of acetonitrile (containing IS) was added and vortexed for 5 min. The sample was centrifuged at 6000 rpm for 15 minutes. The supernatant was removed and analyzed by LC/MS.

Bounds are passed on as bounds.

T2 sequence (P11712 whole entry): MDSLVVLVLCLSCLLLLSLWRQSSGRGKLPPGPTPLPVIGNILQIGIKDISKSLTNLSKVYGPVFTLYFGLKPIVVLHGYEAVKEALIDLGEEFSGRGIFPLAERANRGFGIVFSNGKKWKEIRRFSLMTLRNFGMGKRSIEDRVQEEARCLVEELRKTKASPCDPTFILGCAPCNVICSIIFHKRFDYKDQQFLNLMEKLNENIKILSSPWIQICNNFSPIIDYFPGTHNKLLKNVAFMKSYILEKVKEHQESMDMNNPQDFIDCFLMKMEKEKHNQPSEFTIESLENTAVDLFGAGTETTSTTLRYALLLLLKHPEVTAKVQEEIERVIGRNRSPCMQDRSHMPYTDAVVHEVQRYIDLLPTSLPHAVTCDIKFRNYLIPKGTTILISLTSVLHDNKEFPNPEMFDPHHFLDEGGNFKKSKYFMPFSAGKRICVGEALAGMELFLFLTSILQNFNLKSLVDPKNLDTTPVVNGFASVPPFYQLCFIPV
T3 sequence (P08684 whole entry): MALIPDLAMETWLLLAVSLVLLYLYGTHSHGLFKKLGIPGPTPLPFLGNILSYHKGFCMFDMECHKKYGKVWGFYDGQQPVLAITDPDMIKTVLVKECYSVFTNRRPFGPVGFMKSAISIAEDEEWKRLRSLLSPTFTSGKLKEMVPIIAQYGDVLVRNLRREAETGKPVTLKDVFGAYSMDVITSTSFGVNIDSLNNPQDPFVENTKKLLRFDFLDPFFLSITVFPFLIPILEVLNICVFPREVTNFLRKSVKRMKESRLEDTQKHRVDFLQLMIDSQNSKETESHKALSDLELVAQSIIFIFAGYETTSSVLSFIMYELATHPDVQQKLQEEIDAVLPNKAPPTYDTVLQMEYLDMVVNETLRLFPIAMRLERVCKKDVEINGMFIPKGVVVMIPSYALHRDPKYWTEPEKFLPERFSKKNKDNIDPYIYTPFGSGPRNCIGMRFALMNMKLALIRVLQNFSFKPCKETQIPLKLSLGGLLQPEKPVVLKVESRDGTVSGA

Consider `CC(C)(NC(=O)[C@H]1[C@@H]2CNC[C@H]1C2)c1ncc2c(Cl)cccn12` [Compound 7, (1R,5S,6r)-N-(2-(8-chloroimidazo[1,5-a]pyridin-3-yl)propan-2-yl)-3-azabicyclo[3.1.1]heptane-6-carboxamide], for which the IC50 at CYP1A2, at CYP2C9 and on CYP3A4 was over 10 µM throughout. Moreover, the “RBC Partitioning Study KRBC/PL” value in “RBC partitioning study” is on record as 1.15.
For `CC(C)(NC(=O)[C@H]1[C@@H]2CNC[C@H]1C2)c1ncc2c(Br)cccn12` [Compound 8, (1R,5S,6r)-N-(2-(8-bromoimidazo[1,5-a]pyridin-3-yl)propan-2-yl)-3-azabicyclo[3.1.1]heptane-6-carboxamide], the IC50 on CYP1A2, on CYP2C9 and on CYP3A4 was over 10 µM in each case. Besides, the “RBC Partitioning Study KRBC/PL” value in the series “RBC partitioning study” is 0.94.
For the compound `CC(C)(NC(=O)[C@H]1[C@@H]2CNC[C@H]1C2)c1nc(C2CC2)c2ccccn12` [Compound 9, (1R,5S,6r)-N-(2-(1-cyclopropylimidazo[1,5-a]pyridin-3-yl)propan-2-yl)-3-azabicyclo[3.1.1]heptane-6-carboxamide], the IC50 at CYP1A2, on CYP2C9 and on CYP3A4 was over 10 µM throughout. In the series “RBC partitioning study”, the “RBC Partitioning Study KBlood/PL” value is reported as 1.05. Moreover, the “RBC Partitioning Study KRBC/PL” value in the series “RBC partitioning study” is reported as 1.09.

Broadly, the IC50 is the point on the concentration scale where inhibition reaches its midpoint.

The record behind these values is patent US20240174693A1, “SOMATOSTATIN RECEPTOR SUBTYPE 4 (SSTR4) AGONISTS AND THEIR APPLICATIONS” (Humanwell Pharmaceutical US, priority 2022, published 2024).
